Consider one substance from patent US10100313B2, “Use of Mcoln-1 modulators to regulate cell migration” (INSTITUT CURIE, priority 2014, dated 2018).

Common to all, as to assay type: cell-based, mouse
For assay [1], the system named is dendritic cells. As to the kind of experiment: Migration assay in micro-channels. The method, then: (§1) Mouse bone-marrow cells were cultured during 10-12 days in medium supplemented with fetal calf serum and granulocyte-macrophage colony stimulating factor-containing supernatant obtained from transfected J558 cells, as previously described (Faure-Andre et al, 2008, Science, 322, 1705-10). For migration or mapping assays (see below), cells at day 10-12 were activated with 100 ng/ml of LPS (mature cells, LPS DCs), for 30 min, then rinsed 3 times with complete media and put into the channels. Counterpart immature cells for these experiments are treated in the same condition, but in absence of LPS.
Micro-channels were prepared as previously described (Faure-Andre et al, 2008, Science, 322, 1705-10; Heuze et al., 2011, Methods Mol Biol., 769, 415-434). They were incubated with 10 μg/ml fibronectin alone for 1 h and washed with PBS.
For migration assay, cells were loaded in micro-channels (section 5×5 μm) and imaged at least for 16 hours on an epifluorescence video-microscope Nikon TiE microscope equipped with a cooled CCD camera (HQ2, Photometrics) with a 10× objective, one transmission phase image taken every 2 minutes. Kymograph extraction and instantaneous velocity analysis were performed using a homemade program as described previously (Faure-Andre et al, 2008, Science, 322, 1705-10).

In assay [2] the test system is dendritic cells. Put plainly: Mapping assay of polymerized actin in migrating Lifeact dendritic cells. Conditions: immature DCs. The method, then: as §1
Lifeact dendritic cells (nucleofected or not) were incubated for 30 min in […] Hoechst-containing medium, washed 3 times and 10^5 cells per well were loaded and incubated from 4 h to overnight to allow their entry into micro-channels (section was 8×5 μm). After entry, cells were imaged at least for 16 hours on an epifluorescence video-microscope Nikon TiE microscope equipped with a cooled CCD camera (HQ2, Photometrics) with a 20× objective. Images were acquired every 3 minutes. […] Furthermore for each cell, spatial coordinates of the nuclei were measured and ratio between the mean actin density at the front and at the back of the nucleus was computed. […]

The subject of assay [3] is dendritic cells. Put plainly: Flow cytometry analysis of CD86 levels (DC activation/maturation). Conditions: immature and LPS-matured cells, 5 or 10 μM. The method, then: The following reagents were used for imaging experiments: WGA AlexaFluor-647 and Hoechst (both from Life Technologies). Micro-channels were coated with Fibronectin (Sigma). Cell activation was performed with LPS (Sigma). For flow cytometry the following antibodies were used: anti-CD86 (GL1 clone, 553692) and a Rat IgG2a,κ isotype control (553930) from BD Biosciences.
as §1
Cells were resuspended in staining buffer (PBS BSA 2%) and stained 30 min at 4° C. with the indicated antibodies. Cells were then washed 3 times and resuspended in staining buffer. All Facs experiments were carried on an Accuri flow cytometer (BD Biosciences).
In general terms: Flow cytometry measures light scatter and fluorescence of single cells or particles in a stream.

“Also recorded” adds a separate entry of the source.

On to MLSA1, for which the cell velocity entry in assay [1] (immature DCs) is on record as “increases”; in assay [1] (mature cells (LPS DCs)), “does not further increase”. Moreover, the persistence entry in assay [1] (immature DCs) is recorded as “increases”; in assay [1] (mature cells (LPS DCs)), “does not further increase”. In addition, the “actin polymerization at the cell center/cell rear” value in assay [2] is “enriched at their rear; also recorded: partially induces”. In assay [2] (compared to immature control DCs), the “fraction of time spent by DCs with actin at their front” value was “decreased”. In assay [3], the “CD86 levels (cell activation / LPS-induced maturation)” value is on record as “No effect; also recorded: does not activate immature cells, nor prevent the LPS-induced maturation”.
